Like-named read-outs stand apart in the source and are kept apart here.
How the values were obtained:
BRD4 (BDII_E352-M457) = biological target: T1, BRD4 (BDII_E352-M457) (Homo sapiens, UniProt O60885); assay: TR-FRET bromodomain binding assay, second bromodomain of BRD4; settings: 30 nM probe
T1 construct: protocol; made in house
Procedure, shortened: (§1)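 Probe displacement by TR-FRET: 8 nM His-BRD4 bromodomain, 1 nM Eu-anti-His, Alexa647 BET-inhibitor probe at 100 nM (BDI) or 30 nM (BDII); 20 mM Na phosphate pH 6.0, 2% DMSO; 1 h RT. Ex 340, Em 495/520. IC50 from 4PL fit; Ki from IC50, probe Kd and probe concentration.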

BRD4 (BDI_K57-E168) = biological target: T2, BRD4 (BDI_K57-E168) (Homo sapiens, UniProt O60885); assay: TR-FRET bromodomain binding assay, first bromodomain of BRD4; settings: 100 nM probe
T2 construct: BD1: amino acids K57-E168; made in house
Procedure, shortened: as §1

[1] = test system: breast cancer cell line MX-1; assay: MX-1 cell line proliferation assay; type: cell-based; settings: MX-1 cells, 3-day proliferation assay, Cell Titer Glo, read-out: Cellular proliferation: EC50
Procedure, shortened: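 MX-1 cells at 5000/well, in RPMI 1640 with 10% FBS, were exposed to compounds for 3 days. Final concentrations ranged 3 μM–0.1 nM or 1 μM–0.03 nM, in 3-fold steps. Cell Titer Glo luminescence was normalized to DMSO and fitted sigmoidally for EC50; overall MSR 2.1.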

[2] = TR-FRET assay protocol G (compound 0.92 μM-15 pM)
[3] = TR-FRET assay protocol E (compound 9.19 μM-150 pM)

Ki (BRD4 (BDII_E352-M457); [2]) | Ki (BRD4 (BDI_K57-E168); [2]) | EC50 [1] | EC50 ([1]; Homo sapiens, MX1, 72 h) | Ki (BRD4 (BDII_E352-M457); [3]) | Ki (BRD4 (BDI_K57-E168); [3]) | Compound
3.2 nM | 0.85 nM | 27.8 nM |  |  |  | Cn1cc2c3c(c(C#N)[nH]c3c1=O)CN(c1ccc(Cl)cc1)c1ccccc1-2 [Example 201, 4-(4-chlorophenyl)-10-methyl-11-oxo-3,4,10,11-tetrahydro-1H-1,4,10-triazadibenzo[cd,f]azulene-2-carbonitrile]
42.6 nM | 193 nM | > 1000 nM |  |  |  | Cn1cc2c3c(c[nH]c3c1=O)C(c1cccc3ccccc13)N(c1ccc(F)cc1F)c1ccc(CS(C)(=O)=O)cc1-2 (stereo not drawn) [Example 217, 4-(2,4-difluorophenyl)-10-methyl-7-((methylsulfonyl)methyl)-3-(naphthalen-1-yl)-3,4-dihydro-1H-1,4,10-triazadibenzo[cd,f]azulen-11(10H)-one]
30 nM | 85.9 nM | > 1000 nM |  |  |  | Cn1cc2c3c(c[nH]c3c1=O)C(c1cccc(-c3ccccn3)c1)N(c1ccc(F)cc1F)c1ccc(CS(C)(=O)=O)cc1-2 (racemic) [Example 236, 4-(2,4-difluorophenyl)-10-methyl-7-((methylsulfonyl)methyl)-3-(3-(pyridin-2-yl)phenyl)-3,4-dihydro-1H-1,4,10-triazadibenzo[cd,f]azulen-11(10H)-one]
5.42 nM | 39 nM | 149 nM |  |  |  | Cn1cc2c3c(c[nH]c3c1=O)C(c1cccc3cccnc13)N(c1ccc(F)cc1F)c1ccc(CS(C)(=O)=O)cc1-2 (stereo not drawn) [Example 231, 4-(2,4-difluorophenyl)-10-methyl-7-((methylsulfonyl)methyl)-3-(quinolin-8-yl)-3,4-dihydro-1H-1,4,10-triazadibenzo[cd,f]azulen-11(10H)-one]
2.65 nM | 1.52 nM | 2.66 nM |  |  |  | Cn1cc2c3c(c[nH]c3c1=O)CN(C1CCC(NC(=O)OC(C)(C)C)CC1)c1ccc(CS(C)(=O)=O)cc1-2 (stereo not drawn) [Example 197, tert-butyl ((trans)-4-(10-methyl-7-((methylsulfonyl)methyl)-11-oxo-10,11-dihydro-1H-1,4,10-triazadibenzo[cd,f]azulen-4(3H)-yl)cyclohexyl)carbamate]
1.86 nM | 3.84 nM | 7.82 nM |  |  |  | COC(=O)NC1CCC(N2Cc3c[nH]c4c(=O)n(C)cc(c34)-c3cc(CS(C)(=O)=O)ccc32)CC1 (stereo not drawn) [Example 226, methyl ((cis)-4-(10-methyl-7-((methylsulfonyl)methyl)-11-oxo-10,11-dihydro-1H-1,4,10-triazadibenzo[cd,f]azulen-4(3H)-yl)cyclohexyl)carbamate]
0.64 nM | 0.64 nM |  | 1.36 nM |  |  | [2H]C1([2H])c2c[nH]c3c(=O)n(C)cc(c23)-c2cc(CS(C)(=O)=O)ccc2N1c1ccc(F)cc1F [Example 218, 4-(2,4-difluorophenyl)-(3,3-^2H2)-10-methyl-7-((methylsulfonyl)methyl)-3,4-dihydro-1H-1,4,10-triazadibenzo[cd,f]azulen-11(10H)-one]
5 nM | 2.39 nM | 155 nM |  |  |  | Cn1cc2c3c(c[nH]c3c1=O)CN(C1CCC(N)CC1)c1ccc(CS(C)(=O)=O)cc1-2 (mixture of isomers) [Example 212, 4-(4-aminocyclohexyl)-10-methyl-7-((methylsulfonyl)methyl)-3,4-dihydro-1H-1,4,10-triazadibenzo[cd,f]azulen-11(10H)-one]
22.5 nM | 8.8 nM | 845 nM |  |  |  | Cn1cc2c3c(c[nH]c3c1=O)CN(Cc1cccnn1)c1ccc(CS(C)(=O)=O)cc1-2 [Example 250, 10-methyl-7-((methylsulfonyl)methyl)-4-(pyridazin-3-ylmethyl)-3,4-dihydro-1H-1,4,10-triazadibenzo[cd,f]azulen-11(10H)-one]

Continued, compound first:

Compound | Ki (BRD4 (BDII_E352-M457); [2]) | Ki (BRD4 (BDI_K57-E168); [2]) | EC50 [1] | EC50 ([1]; Homo sapiens, MX1, 72 h) | Ki (BRD4 (BDII_E352-M457); [3]) | Ki (BRD4 (BDI_K57-E168); [3])
4-(1H-indazol-5-yl)-10-methyl-7-((methylsulfonyl)methyl)-3,4-dihydro-1H-1,4,10-triazadibenzo[cd,f]azulen-11(10H)-one [Example 246] | 3.6 nM | 4.32 nM | 11.7 nM |  |  | 
Cc1ccccc1NC(=O)N1Cc2c[nH]c3c(=O)n(C)cc(c23)-c2cc(CS(C)(=O)=O)ccc21 [Example 52, 10-methyl-7-((methylsulfonyl)methyl)-11-oxo-N-(o-tolyl)-10,11-dihydro-1H-1,4,10-triazadibenzo[cd,f]azulene-4(3H)-carboxamide] | 4.99 nM | 17.4 nM | 247 nM |  |  | 
COC(=O)CCCCC1c2c[nH]c3c(=O)n(C)cc(c23)-c2cc(CS(C)(=O)=O)ccc2N1c1ccc(F)cc1F (stereo not drawn) [Example 134, methyl 5-(4-(2,4-difluorophenyl)-10-methyl-7-((methylsulfonyl)methyl)-11-oxo-3,4,10,11-tetrahydro-1H-1,4,10-triazadibenzo[cd,f]azulen-3-yl)pentanoate] | 1.11 nM | 14.4 nM | 182 nM |  |  | 
Cn1cc2c3c(c[nH]c3c1=O)CN(C(=O)Nc1ccc(F)cc1F)c1ccc(CS(C)(=O)=O)cc1-2 [Example 68, N-(2,4-difluorophenyl)-10-methyl-7-((methylsulfonyl)methyl)-11-oxo-10,11-dihydro-1H-1,4,10-triazadibenzo[cd,f]azulene-4(3H)-carboxamide] | 4.22 nM | 12.7 nM | 40.1 nM |  |  | 
Cn1cc2c3c(c[nH]c3c1=O)C(C(=O)NCC1CC1)N(c1ccc(F)cc1F)c1ccc(CS(C)(=O)=O)cc1-2 (stereo not drawn) [Example 164, N-(cyclopropylmethyl)-4-(2,4-difluorophenyl)-10-methyl-7-((methylsulfonyl)methyl)-11-oxo-3,4,10,11-tetrahydro-1H-1,4,10-triazadibenzo[cd,f]azulene-3-carboxamide] | 30 nM | 41.7 nM | 72.5 nM |  |  | 
Cn1cc2c3c(c[nH]c3c1=O)C(CCC(=O)N1CCN(C(=O)OC(C)(C)C)CC1)N(c1ccc(F)cc1F)c1ccc(CS(C)(=O)=O)cc1-2 (stereo not drawn) [Example 125, tert-butyl 4-(3-(4-(2,4-difluorophenyl)-10-methyl-7-((methylsulfonyl)methyl)-11-oxo-3,4,10,11-tetrahydro-1H-1,4,10-triazadibenzo[cd,f]azulen-3-yl)propanoyl)piperazine-1-carboxylate] | 2.36 nM | 9.26 nM | 342 nM |  |  | 
Cn1cc2c3c(c[nH]c3c1=O)CN(C1CCC(NC(=O)OC(C)(C)C)CC1)c1ccc(S(C)(=O)=O)cc1-2 (stereo not drawn) [Example 170, tert-butyl ((trans)-4-(10-methyl-7-(methylsulfonyl)-11-oxo-10,11-dihydro-1H-1,4,10-triazadibenzo[cd,f]azulen-4(3H)-yl)cyclohexyl)carbamate] | 25.2 nM | 7.07 nM | 57.6 nM |  |  | 
4-([1,1′-biphenyl]-4-carbonyl)-10-methyl-7-((methylsulfonyl)methyl)-3,4-dihydro-1H-1,4,10-triazadibenzo[cd,f]azulen-11(10H)-one [Example 102] | 26.9 nM | 9.41 nM | 151 nM |  |  | 
Cn1cc2c3c(c[nH]c3c1=O)C(CN)N(c1ccc(F)cc1F)c1ccc(CS(C)(=O)=O)cc1-2 (stereo not drawn) [Example 129, 3-(aminomethyl)-4-(2,4-difluorophenyl)-10-methyl-7-((methylsulfonyl)methyl)-3,4-dihydro-1H-1,4,10-triazadibenzo[cd,f]azulen-11(10H)-one] | 2.5 nM | 16.2 nM | 250 nM |  |  | 
4-(6-methoxypyridin-2-yl)-10-methyl-7-((methylsulfonyl)methyl)-3,4-dihydro-1H-1,4,10-triazadibenzo[cd,f]azulen-11(10H)-one [Example 256] | 0.54 nM | 0.59 nM | 0.35 nM |  |  | 
Cn1cc2c3c(c[nH]c3c1=O)C(CCc1ccccc1)Nc1ccc(CS(C)(=O)=O)cc1-2 (stereo not drawn) [Example 18, 10-methyl-7-((methylsulfonyl)methyl)-3-phenethyl-3,4-dihydro-1H-1,4,10-triazadibenzo[cd,f]azulen-11(10H)-one] |  |  | 343 nM |  | 24.1 nM | 145 nM
Cn1cc2c3c(c[nH]c3c1=O)CN(C(=O)C1CC1)c1ccc(CS(C)(=O)=O)cc1-2 [Example 115, 4-(cyclopropanecarbonyl)-10-methyl-7-((methylsulfonyl)methyl)-3,4-dihydro-1H-1,4,10-triazadibenzo[cd,f]azulen-11(10H)-one] | 2.71 nM | 8.7 nM | 7.83 nM |  |  | 
Cn1cc2c3c(c[nH]c3c1=O)C(/C=C/c1ccc(F)cc1)Nc1ccc(CS(C)(=O)=O)cc1-2 (racemic) [Example 20, (E)-3-(4-fluorostyryl)-10-methyl-7-((methylsulfonyl)methyl)-3,4-dihydro-1H-1,4,10-triazadibenzo[cd,f]azulen-11(10H)-one] |  |  | 544 nM |  | 24.5 nM | 158 nM
Cn1cc2c3c(c[nH]c3c1=O)CN(C(=O)Cc1ccccc1)c1ccc(CS(C)(=O)=O)cc1-2 [Example 108, 10-methyl-7-((methylsulfonyl)methyl)-4-(2-phenylacetyl)-3,4-dihydro-1H-1,4,10-triazadibenzo[cd,f]azulen-11(10H)-one] | 2.11 nM | 13.9 nM | 165 nM |  |  | 

— patent publication US10035800B2 (AbbVie Inc., priority 2013, dated 2018)
